Assay results published in patent publication US20240108577A1, “CONTROLLED RELEASE OF […] A SOURCE MATERIAL” (Syqe Medical Ltd., priority 2022, published 2024).

What was measured:
[1] = Pre-packaging refrigeration stability of ground MC powder (5° C.±2° C., up to 12% RH), LOD and U-HPLC of phytocannabinoids; format: physicochemical; conditions: for change in phytocannabinoid concentration during storage: up to 3 months, one-way ANOVA
Procedure: In the described experiment, Bedrocan strain MC powder was stored at 5° C.±2° C. with up to 12% relative humidity (RH) in a polypropylene container, sealed in an aluminum foil pouch (Oliver-Tolas Healthcare Packaging B.V.; Venray, Netherlands). In order to assess its stability during the handling and hold time, samples were taken from three separate growing batches and assayed at baseline and at 1, 2 and 3 months post grinding. Each sample was assayed for loss on drying (LOD), and of the concentrations of the major phytocannabinoids (CBDA, CBD, CBGA, CBN, THCA and THC).
(§1) Analysis of cannabis inflorescences for the main phytocannabinoids (CBDA, CBD, CBGA, CBN, THCA and THC) was performed as follows: 100 mg of ground Cannabis inflorescences were weighed in duplicate from one container and extracted with 25 mL methanol then sonicated for 40 min and centrifuged at 3000 rpm for 5 min. All samples were filtered through a 0.22 μm PP filter vail prior to analysis. The dilution and quantitation were preformed corresponding to calibration curves. The main six phytocannabinoids were analyzed by ultra-high-performance liquid chromatography (UHPLC: […]) system with a refrigerated auto-sampler, thermostatic column oven and ultraviolet detector, Waters ACQUITY UPLC H-Class. Chromatographic separation was achieved using UPLC column Waters Acquity C18, 1.7 μm particles, 2.1×150 mm maintained at 30° C. The phytocannabinoids were separated using a gradient elution with mobile phases of 0.1% (v/v) formic acid in double-distilled water (phase A) and acetonitrile (phase B), respectively. A constant flow rate of 0.4 mL/min was employed throughout. The gradient profile varied from 70% to 100% B in 10.5 min, held for 0.5 min in these conditions and then returned to the initial conditions.
(§2) For THC and CBD, the concentrations of the acid and its neutral counterpart were summed and reported as the total content. For example, the concentration of total THC […] was calculated as: Total THC=THCA*0.877+THC, with 0.877 being the molar ratio between the two compounds that corrects for a change in the mass of THCA as a result of the loss of CO2 (decarboxylation). This is shown in FIG. 7A: “U-HPLC analysis of the Bedrocan cultivar”.
(§3) R software (V.1.1.463) with tidyverse (17) package was used to analyze changes in outcome measures by one way ANOVA test, using Fisher's exact test analysis. All analyses were followed by a Tukey post-hoc test for multiple comparison. Data are presented as Mean±95% confidence interval (CI). Differences were considered significant at the p<0.05 level.

[2] = Long-term stability of ground cannabis packaged in Syqe cartridges at 25° C.±2° C. (RH 60%±5%), LOD and U-HPLC; format: physicochemical; conditions: for change in phytocannabinoid amount during storage: RH 60%, up to 24 months, one-way ANOVA
Procedure: (§4) In some embodiments, once cartridges are produced, they are stored, distributed and used at RT. In order to assess the shelf life of such cartridges, a long-term stability study was performed, during which cartridges were stored at 25° C.±2° C. (RH 60%±5%) in a calibrated and certified stability chamber (Memmert Constant climate chamber HPP260). 9, 6, 9, 8, 7, 4 and 4 separate growing batches were tested at baseline and after 3, 6, 9, 12, 18 and 24 months, respectively. At each time point samples of the ground inflorescence within the cartridges were analyzed for LOD and for the amount (mg) of each of the major phytocannabinoids (CBDA, CBD, CBGA, CBN, THCA and THC). Of the same batches, THC aerosolized by the Syqe inhaler was analyzed at baseline and at 6, 9, 18 and 24 months.
as §1, §2, §3

[3] = Stability of Syqe cartridges stored at 30° C.±2° C. (65% RH±5% RH), LOD and U-HPLC; format: physicochemical; conditions: for change in phytocannabinoid amount during storage: 65% RH, up to 6 months, one-way ANOVA; for amounts detected at all time points: BL to 6 months
Procedure: Additionally, to assess the effects of a warmer temperature on MC, Syqe cartridges were stored post-production at an elevated temperature and humidity of 30° C.±2° C. (65% RH±5% RH). Three different growing batches were analyzed at baseline and at 1, 2, 4 and 6 months of storage.
as §1, §2, §3

[4] = Heating of ground cannabis samples to target temperatures 60-150° C.; vaporized THC measured in aerosol, residual terpenes by GC/MS; format: physicochemical; conditions: 135 mg ground cannabis, THC measured in the aerosol, FIG. 6A
Procedure: The vaporization plots in FIGS. 6A-B show results of an experiment performed by the inventors in which samples of 135 mg of ground cannabis were heated to several target temperatures, including 60° C., 70° C., 80° C., 90° C., 100° C., 110° C., 120° C., 130° C., 140° C. and 150° C. At each of the target temperatures, vaporized THC was measured in the aerosol. At each of the target temperatures, the residual mass of ground cannabis was analyzed using Gas Chromatography-Mass Spectrometry (GC/MS) to determine existence of terpenes, such as: Linalool, Isopulegol, Geraniol, Caryophyllene, […] Humulene<alpha-> and Nerolidol. The total terpenes residue (as remaining in the ground cannabis) is indicated by the dashed line in FIG. 6A. Based on the residual mass of terpenes, the released (vaporized) amount terpenes was calculated, by subtracting the measured residual mass from a respective reference mass.
As can be observed from FIG. 6A, THC (indicated by the continuous line) release started at a target temperature of 130 degrees C., and increased with the rising of the target temperature (up to 150 degrees C.).

[5] = THC dose aerosolized by the Syqe inhaler from cartridges stored at 25° C. up to 24 months; format: physicochemical; conditions: for aerosolized THC dose: inhaler set to 500 μg THC, mean±95% CI
Procedure: as §4
In some embodiments, the Syqe inhaler is preprogrammed with several distinct heating protocols. In some embodiments, each heating protocol is tailored to heat a VC and deliver an aerosol containing 250, 500, 750 or 1,000 μg or intermediate, larger or smaller amounts of THC to the user. In some embodiments, THC serves as an indicator for dose selection and is optionally delivered with an entourage of phytocannabinoids, terpenes and other molecules of the whole inflorescence that vaporize into the aerosol with it. […] Other dosage amounts are also to be contemplated, any may also serve as optimal dosing, depending on the need. For example, dosage amounts of between 50-5000 μg Δ^9-THC, 200-1000 μg Δ^9-THC, 50-500 μg Δ^9-THC, 1000-5000 μg Δ^9-THC, or intermediate, higher or lower ranges.
In the framework of the two-year stability study, samples were also taken for aerosolization using the Syqe Inhaler. The Syqe Inhaler was set to aerosolize 500 μg THC doses, in accordance with some embodiments. Data is provided only for time points in which three or more batches were tested (namely, BL and 6, 9, 18 and 24 months). […] BL, 6-, 9-, 18-, and 24-months' values were 484.76±31.28n, 486.30±50.56n, 563±22.06 μg, 597.94±16.75 μg and 554.67±36.00 μg, respectively. All aerosolized THC doses were well within the 500 μg±25% range (i.e., 375-625 μg) that apply to pharmaceutical grade inhalers (16).

[6] = after four years, room temperature (22 C), light or darkness (conditions A and B); cited from earlier work

| SMILES | change in phytocannabinoid concentration during storage [1] | change in phytocannabinoid amount during storage ([2]; 25° C.) | change in phytocannabinoid amount during storage [3] | amounts detected at all time points [3] | other results |
| --- | --- | --- | --- | --- | --- |
| CCCCCc1cc2c(c(O)c1C(=O)O)[C@@H]1C=C(C)CC[C@H]1C(C)(C)O2 (relative stereo) [THCA, (−)-Δ^9-trans-tetrahydrocannabinolic acid] | no significant change | decreased significantly | decreased significantly | – | – |
| C=C(C)[C@@H]1CCC(C)=C[C@H]1c1c(O)cc(CCCCC)cc1O [CBD, Cannabidiol, reference compound] | – | – | – | mostly undetected | concentration detected at all time points ([1]; BL to 3 months): mostly undetected; concentration detected at all time points ([2]; 25° C., BL to 24 months): mostly non-detected |
| C=C(C)[C@@H]1CCC(C)=C[C@H]1c1c(O)cc(CCCCC)c(C(=O)O)c1O [CBDA, Cannabidiolic acid] | no significant change | no significant change | – | mostly undetected | pre-storage amount ([2]; before storage): ≤ 0.006 mg/sample |
| CCCCCc1cc(O)c(C/C=C(\C)CCC=C(C)C)c(O)c1C(=O)O [CBGA, Cannabigerolic acid] | no significant change | decreased significantly | decreased significantly | – | – |
| CCCCCc1cc(O)c2c(c1)OC(C)(C)c1ccc(C)cc1-2 [CBN, Cannabinol] | no significant change | increased significantly | increased significantly | – | – |
| CCCCCc1cc(O)c2c(c1)OC(C)(C)[C@@H]1CCC(C)=C[C@@H]21 [THC, (−)-Δ^9-trans-tetrahydrocannabinol] | no significant change | increased | increased significantly | – | target temperature at which THC release started [4]: 130 degrees C.; change in phytocannabinoid amount during storage ([2]; 25° C., listed as Δ^9-THC): increased significantly; aerosolized THC dose ([5]; 6 months at 25° C.): 486.30±50.56 n; aerosolized THC dose ([5]; 9 months at 25° C.): 563 ± 22.06 µg; aerosolized THC dose ([5]; 18 months at 25° C.): 597.94 ± 16.75 µg; aerosolized THC dose ([5]; 24 months at 25° C.): 554.67 ± 36.00 µg; range within which all aerosolized THC doses remained ([5]; BL to 24 months at 25° C., 500 μg±25%): 375 to 625 µg; aerosolized THC dose ([5]; BL): 484.76±31.28 n; THC degraded [6]: ~100% |
